As usually defined, the pIC50 is −log10 of the IC50, conventionally taken in molar units. Low readings indicate a large IC50, high ones a small IC50.

pIC50: −log10 of the molar value.

The target of this experiment is RIPK2 enzyme (Homo sapiens (Human), UniProt O43353). Description: RIPK2 inhibition assay, TR-FRET LanthaScreen Tracer 199 screening assay. Type of experiment: binding. Conditions: 5 nM RIPK2 enzyme, Tracer 199 at 50 nM, Eu-anti-His Antibody at 2 nM, 1 hour incubation. As for the experimental part: All data was collected using a standard TR-FRET screening assay: LanthaScreen Tracer 199 at 50 nM, Eu-anti-His Antibody at 2 nM, 5 nM RIPK2 enzyme, and 1× Kinase Reaction Buffer. There was a 1 hour incubation prior to read. TR-FRET signal of the interaction (340Ex/665Em/615Em) was read at room temperature with standard setting. Background was subtracted of wells containing no enzyme. Percent inhibition was based on uninhibited controls log (inhibitor) vs. response. Variable slope equation was used with no constraints: Log Y=Bottom+(Top−Bottom)/(1+10^((Log IC50−X)*Hill Slope)).
RIPK2 enzyme, sequence (O43353 whole entry): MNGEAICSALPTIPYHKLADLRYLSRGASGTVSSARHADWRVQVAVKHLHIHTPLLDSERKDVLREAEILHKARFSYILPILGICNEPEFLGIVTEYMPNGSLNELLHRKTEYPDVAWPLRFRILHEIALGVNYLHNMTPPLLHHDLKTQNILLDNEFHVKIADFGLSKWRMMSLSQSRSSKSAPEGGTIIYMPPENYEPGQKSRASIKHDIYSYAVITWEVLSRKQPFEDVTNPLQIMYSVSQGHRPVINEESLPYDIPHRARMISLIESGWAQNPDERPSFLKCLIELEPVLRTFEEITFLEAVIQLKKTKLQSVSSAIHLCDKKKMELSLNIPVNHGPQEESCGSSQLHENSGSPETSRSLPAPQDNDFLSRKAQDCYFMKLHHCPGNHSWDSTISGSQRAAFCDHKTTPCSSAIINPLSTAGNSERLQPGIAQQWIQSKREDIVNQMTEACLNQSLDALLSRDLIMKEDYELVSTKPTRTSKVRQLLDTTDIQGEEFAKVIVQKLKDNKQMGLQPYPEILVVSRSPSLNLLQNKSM
The compound numbers correspond to the compound numbers above.
The compound `CC(=O)N1CCCC(c2cc3c(Nc4ccc5scnc5c4)ccnc3s2)C1C` (stereo not drawn) [Example 10, 1-(3-(4-(benzo[d]thiazol-5-ylamino)thieno[2,3-b]pyridin-2-yl)-2-methylpiperidin-1-yl)ethan-1-one] had a negative logarithm of the IC50 (pIC50) of at least 8.00.
The compound `COCC(=O)N1CCC=C(c2cc3c(Nc4ccc5scnc5c4)ccnc3s2)C1C` (stereo not drawn) [Example 11, 1-(5-(4-(benzo[d]thiazol-5-ylamino)thieno[2,3-b]pyridin-2-yl)-6-methyl-3,6-dihydro-pyridin-1(2H)-yl)-2-methoxyethan-1-one] had a negative-log IC50 (pIC50) of at least 8.00.
Compound `COCCN1CCC=C(c2cc3c(Nc4ccc5scnc5c4)ccnc3s2)C1C` (stereo not drawn) [Example 12, N-(2-(1-(2-methoxyethyl)-2-methyl-1,2,5,6-tetrahydropyridin-3-yl)thieno[2,3-b]pyridin-4-yl)benzo[d]thiazol-5-amine] showed a pIC50 of at least 8.00.
The same measure for `COCCN1CCC=C(c2cc3c(Nc4ccc5scnc5c4)ccnc3s2)[C@H]1C` [Example 12a, N-(2-(1-(2-methoxyethyl)-2-methyl-1,2,5,6-tetrahydropyridin-3-yl)thieno[2,3-b]pyridin-4-yl)benzo[d]thiazol-5-amine]: at least 8.00; for `COCCN1CCC=C(c2cc3c(Nc4ccc5scnc5c4)ccnc3s2)[C@@H]1C` [Example 12b, N-(2-(1-(2-methoxyethyl)-2-methyl-1,2,5,6-tetrahydropyridin-3-yl)thieno[2,3-b]pyridin-4-yl)benzo[d]thiazol-5-amine]: at least 8.00.
Under `COCCN1CCCC(c2cc3c(Nc4ccc5scnc5c4)ccnc3s2)C1C` (stereo not drawn) [Example 13, N-(2-(1-(2-methoxyethyl)-2-methylpiperidin-3-yl)thieno[2,3-b]pyridin-4-yl)benzo[d]thiazol-5-amine] stands at least 8.00; under `CC1C(c2cc3c(Nc4ccc5scnc5c4)ccnc3s2)CCCN1CCF` (stereo not drawn) [Example 14, N-(2-(1-(2-fluoroethyl)-2-methylpiperidin-3-yl)thieno[2,3-b]pyridin-4-yl)benzo[d]thiazol-5-amine], at least 8.00; under `CC1C(c2cc3c(Nc4ccc5scnc5c4)ccnc3s2)CCCN1CC(F)F` (stereo not drawn) [Example 15, N-(2-(1-(2,2-difluoroethyl)-2-methylpiperidin-3-yl)thieno[2,3-b]pyridin-4-yl)benzo[d]thiazol-5-amine], 7.30 to 7.70.
The same measure for `CC1C(c2cc3c(Nc4ccc5scnc5c4)ccnc3s2)CCCN1C1COC1` (stereo not drawn) [Example 17, N-(2-(2-methyl-1-(oxetan-3-yl)piperidin-3-yl)thieno[2,3-b]pyridin-4-yl)benzo[d]thiazol-5-amine]: 7.70 to 8.00.
In turn, `CC1C(c2cc3c(Nc4ccc5scnc5c4)ccnc3s2)CCCN1CCCN` (stereo not drawn) [Example 18, N-(2-(1-(3-aminopropyl)-2-methylpiperidin-3-yl)thieno[2,3-b]pyridin-4-yl)benzo[d]thiazol-5-amine] had a negative logarithm of the IC50 (pIC50) of at least 8.00.
The same measure for `CCOCCN1CCCC(c2cc3c(Nc4ccc5scnc5c4)ccnc3s2)C1C` (stereo not drawn) [Example 19, N-(2-(1-(2-ethoxyethyl)-2-methylpiperidin-3-yl)thieno[2,3-b]pyridin-4-yl)benzo[d]thiazol-5-amine]: 7.70 to 8.00.
The compound `CC1C(c2cc3c(Nc4ccc5scnc5c4)ccnc3s2)CCCN1CCO` (stereo not drawn) [Example 20, 2-(3-(4-(benzo[d]thiazol-5-ylamino)thieno[2,3-b]pyridin-2-yl)-2-methylpiperidin-1-yl)ethan-1-ol] showed a pIC50 of at least 8.00.
The same measure for `c1cc(Nc2ccc3scnc3c2)c2cc(C3CCCN4CCCCC34)sc2n1` (stereo not drawn) [Example 21, N-(2-(octahydro-2H-quinolizin-1-yl)thieno[2,3-b]pyridin-4-yl)benzo[d]thiazol-5-amine]: 7.30 to 7.70; for `CCC1C(c2cc3c(Nc4ccc5scnc5c4)ccnc3s2)CCCN1C` (stereo not drawn) [Example 23a, N-(2-(2-ethyl-1-methylpiperidin-3-yl)thieno[2,3-b]pyridin-4-yl)benzo[d]thiazol-5-amine]: at least 8.00.
The same measure for `CCC1C(c2cc3c(Nc4ccc5scnc5c4)ccnc3s2)CCCN1CC` (stereo not drawn) [Example 24, N-(2-(1,2-diethylpiperidin-3-yl)thieno[2,3-b]pyridin-4-yl)benzo[d]thiazol-5-amine]: 7.70 to 8.00.
The same measure for `CC1NCC=C1c1cc2c(Nc3ccc4scnc4c3)ccnc2s1` (stereo not drawn) [Example 25, N-(2-(2-methyl-2,5-dihydro-1H-pyrrol-3-yl)thieno[2,3-b]pyridin-4-yl)benzo[d]thiazol-5-amine]: at least 8.00; for `CC1NCCC1c1cc2c(Nc3ccc4scnc4c3)ccnc2s1` (stereo not drawn) [Example 26, N-(2-(2-methylpyrrolidin-3-yl)thieno[2,3-b]pyridin-4-yl)benzo[d]thiazol-5-amine]: at least 8.00.
On to `CC1C(c2cc3c(Nc4ccc5scnc5c4)ccnc3s2)=CCN1C` (stereo not drawn) [Example 27, N-(2-(1,2-dimethyl-2,5-dihydro-1H-pyrrol-3-yl)thieno[2,3-b]pyridin-4-yl)benzo[d]thiazol-5-amine], for which the pIC50 is at least 8.00.
Under `CC1C(c2cc3c(Nc4ccc5scnc5c4)ccnc3s2)CCN1C` (stereo not drawn) [Example 28, N-(2-(1,2-dimethylpyrrolidin-3-yl)thieno[2,3-b]pyridin-4-yl)benzo[d]thiazol-5-amine] stands at least 8.00; under `CCN1CCC(c2cc3c(Nc4ccc5scnc5c4)ccnc3s2)C1C` (stereo not drawn) [Example 30, N-(2-(1-ethyl-2-methylpyrrolidin-3-yl)thieno[2,3-b]pyridin-4-yl)benzo[d]thiazol-5-amine], at least 8.00; under `CC1C(c2cc3c(Nc4ccc5scnc5c4)ccnc3s2)CCN1CCO` (stereo not drawn) [Example 31, 2-(3-(4-(benzo[d]thiazol-5-ylamino)thieno[2,3-b]pyridin-2-yl)-2-methylpyrrolidin-1-yl)ethan-1-ol], at least 8.00.
Under `CC1(C)NCC=C1c1cc2c(Nc3ccc4scnc4c3)ccnc2s1` [Example 32, N-(2-(2,2-dimethyl-2,5-dihydro-1H-pyrrol-3-yl)thieno[2,3-b]pyridin-4-yl)benzo[d]thiazol-5-amine] stands at least 8.00; under `CC1(C)NCCC1c1cc2c(Nc3ccc4scnc4c3)ccnc2s1` (stereo not drawn) [Example 33, N-(2-(2,2-dimethylpyrrolidin-3-yl)thieno[2,3-b]pyridin-4-yl)benzo[d]thiazol-5-amine], at least 8.00.
The same measure for `CN1CC=C(c2cc3c(Nc4ccc5scnc5c4)ccnc3s2)C1(C)C` [Example 34, N-(2-(1,2,2-trimethyl-2,5-dihydro-1H-pyrrol-3-yl)thieno[2,3-b]pyridin-4-yl)benzo[d]thiazol-5-amine]: at least 8.00; for `CN1CCC(c2cc3c(Nc4ccc5scnc5c4)ccnc3s2)C1(C)C` (stereo not drawn) [Example 35, N-(2-(1,2,2-trimethylpyrrolidin-3-yl)thieno[2,3-b]pyridin-4-yl)benzo[d]thiazol-5-amine]: 7.70 to 8.00; for `CCN1CCC(c2cc3c(Nc4ccc5scnc5c4)ccnc3s2)C1(C)C` (stereo not drawn) [Example 37, N-(2-(1-ethyl-2,2-dimethylpyrrolidin-3-yl)thieno[2,3-b]pyridin-4-yl)benzo[d]thiazol-5-amine]: at least 8.00.
Regarding `CC1(C)C(c2cc3c(Nc4ccc5scnc5c4)ccnc3s2)CCN1CCO` (stereo not drawn) [Example 38, 2-(3-(4-(benzo[d]thiazol-5-ylamino)thieno[2,3-b]pyridin-2-yl)-2,2-dimethylpyrrolidin-1-yl)ethan-1-ol], the negative logarithm of the IC50 (pIC50) was at least 8.00.
Under `C1=C(c2cc3c(Nc4ccc5scnc5c4)ccnc3s2)C2(COC2)NC1` [Example 39, N-(2-(2-oxa-5-azaspiro[3.4]oct-7-en-8-yl)thieno[2,3-b]pyridin-4-yl)benzo[d]thiazol-5-amine] stands at least 8.00.
Compound `C1=C(c2cc3c(Nc4ccc5scnc5c4)ccnc3s2)C2(CCOC2)NC1` (stereo not drawn) [Example 40, N-(2-(7-oxa-1-azaspiro[4.4]non-3-en-4-yl)thieno[2,3-b]pyridin-4-yl)benzo[d]thiazol-5-amine] had a pIC50 of at least 8.00.
The same measure for `CN1CC=C(c2cc3c(Nc4ccc5scnc5c4)ccnc3s2)C12CCOC2` (stereo not drawn) [Example 41, N-(2-(1-methyl-7-oxa-1-azaspiro[4.4]non-3-en-4-yl)thieno[2,3-b]pyridin-4-yl)benzo[d]thiazol-5-amine]: 7.70 to 8.00; for `c1cc(Nc2ccc3scnc3c2)c2cc(C3CCNC34CCOC4)sc2n1` (stereo not drawn) [Example 42, N-(2-(7-oxa-1-azaspiro[4.4]nonan-4-yl)thieno[2,3-b]pyridin-4-yl)benzo[d]thiazol-5-amine]: 7.70 to 8.00; for `CN1CCC(c2cc3c(Nc4ccc5scnc5c4)ccnc3s2)C12CCOC2` (stereo not drawn) [Example 43, N-(2-(1-methyl-7-oxa-1-azaspiro[4.4]nonan-4-yl)thieno[2,3-b]pyridin-4-yl)benzo[d]thiazol-5-amine]: 7.30 to 7.70.
Under `CCN1CC=C(c2cc3c(Nc4ccc5scnc5c4)ccnc3s2)C12CCOC2` (stereo not drawn) [Example 44, N-(2-(1-ethyl-7-oxa-1-azaspiro[4.4]non-3-en-4-yl)thieno[2,3-b]pyridin-4-yl)benzo[d]thiazol-5-amine] stands at least 8.00; under `CCN1CCC(c2cc3c(Nc4ccc5scnc5c4)ccnc3s2)C12CCOC2` (stereo not drawn) [Example 45, N-(2-(1-ethyl-7-oxa-1-azaspiro[4.4]nonan-4-yl)thieno[2,3-b]pyridin-4-yl)benzo[d]thiazol-5-amine], 7.70 to 8.00; under `C1=C(c2cc3c(Nc4ccc5scnc5c4)ccnc3s2)C2(CCOCC2)NC1` [Example 46, N-(2-(8-oxa-1-azaspiro[4.5]dec-3-en-4-yl)thieno[2,3-b]pyridin-4-yl)benzo[d]thiazol-5-amine], at least 8.00.
The compound `CCN1CC=C(c2cc3c(Nc4ccc5scnc5c4)ccnc3s2)C12CCOCC2` [Example 47, N-(2-(1-ethyl-8-oxa-1-azaspiro[4.5]dec-3-en-4-yl)thieno[2,3-b]pyridin-4-yl)benzo[d]thiazol-5-amine] had a pIC50 of at least 8.00.

The values above are taken from patent US11168093B2, “Thienopyridine inhibitors of RIPK2” (Celgene Corporation, priority 2018, dated 2021).
